As usually defined, the remaining activity is the signal under treatment as a percentage of the control signal. One may read the IC50 as the concentration that inhibits the measured activity by half.

Eight compounds from patent publication US9738660B2, “Selective inhibitors for protein kinases and pharmaceutical composition and use thereof” (National Chiao Tung University, priority 2014, dated 2017) can be followed below.

Like-named read-outs stand apart in the source and are kept apart here.

One assay deals with T1, PLK1 (Homo sapiens, UniProt P53350).
T1 construct: purchased Research Biology Corp. (http://www.reactionbiology.com)
T1 sequence (P53350 whole entry): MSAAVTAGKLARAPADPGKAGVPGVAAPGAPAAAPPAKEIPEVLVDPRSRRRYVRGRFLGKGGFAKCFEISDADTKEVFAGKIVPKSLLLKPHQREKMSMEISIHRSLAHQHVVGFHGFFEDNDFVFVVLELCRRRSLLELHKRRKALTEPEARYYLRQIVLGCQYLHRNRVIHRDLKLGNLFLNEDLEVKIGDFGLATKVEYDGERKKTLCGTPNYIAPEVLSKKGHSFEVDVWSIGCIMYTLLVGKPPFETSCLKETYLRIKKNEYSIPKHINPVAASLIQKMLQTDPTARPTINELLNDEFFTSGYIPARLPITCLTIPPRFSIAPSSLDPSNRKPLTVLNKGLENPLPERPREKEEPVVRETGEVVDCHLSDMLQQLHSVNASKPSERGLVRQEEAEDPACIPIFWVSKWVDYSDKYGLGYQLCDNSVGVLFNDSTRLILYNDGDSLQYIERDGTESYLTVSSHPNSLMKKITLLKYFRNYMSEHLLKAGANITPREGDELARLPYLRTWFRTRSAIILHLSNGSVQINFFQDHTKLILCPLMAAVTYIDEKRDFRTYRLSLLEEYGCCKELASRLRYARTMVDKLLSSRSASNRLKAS
Nature of the assay: Kinase Profiler, residual kinase activity. The format is biochemical. The settings on record: read-out: percentage of the remaining kinase activity.

The next assay addresses T2, MAPKAPK2 (Homo sapiens, UniProt P49137).
T2 construct: purchased Research Biology Corp. (http://www.reactionbiology.com)
The assay can be described thus: Kinase Profiler, residual kinase activity. The format is biochemical. The settings on record: read-out: percentage of the remaining kinase activity.

The next assay has as its target FGFR1 (Homo sapiens, UniProt P11362). Nature of the assay: Kinase Profiler, residual kinase activity. The settings on record: read-out: percentage of the remaining kinase activity. The format is biochemical.
The target of a further assay is LCK (Homo sapiens, UniProt P06239). The assay can be described thus: Kinase Profiler, residual kinase activity. Format: biochemical. The settings on record: read-out: percentage of the remaining kinase activity.
Chain of LCK (P06239 whole entry): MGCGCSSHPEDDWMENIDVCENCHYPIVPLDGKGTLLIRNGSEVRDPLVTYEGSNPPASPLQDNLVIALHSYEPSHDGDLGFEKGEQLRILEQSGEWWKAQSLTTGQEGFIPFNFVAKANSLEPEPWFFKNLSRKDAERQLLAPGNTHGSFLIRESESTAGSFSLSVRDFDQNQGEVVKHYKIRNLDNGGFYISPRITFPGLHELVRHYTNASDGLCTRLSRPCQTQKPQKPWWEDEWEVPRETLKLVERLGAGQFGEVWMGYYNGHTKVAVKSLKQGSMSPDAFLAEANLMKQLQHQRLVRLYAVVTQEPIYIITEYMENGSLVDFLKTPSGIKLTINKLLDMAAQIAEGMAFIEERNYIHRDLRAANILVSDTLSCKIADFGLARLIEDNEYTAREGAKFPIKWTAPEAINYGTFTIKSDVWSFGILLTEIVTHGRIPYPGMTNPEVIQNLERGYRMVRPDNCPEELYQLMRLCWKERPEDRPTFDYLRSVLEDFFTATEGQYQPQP
The target of a further assay is T3, RPS6KB1 (Homo sapiens, UniProt P23443).
T3 construct: purchased Research Biology Corp. (http://www.reactionbiology.com)
T3 sequence (P23443 whole entry): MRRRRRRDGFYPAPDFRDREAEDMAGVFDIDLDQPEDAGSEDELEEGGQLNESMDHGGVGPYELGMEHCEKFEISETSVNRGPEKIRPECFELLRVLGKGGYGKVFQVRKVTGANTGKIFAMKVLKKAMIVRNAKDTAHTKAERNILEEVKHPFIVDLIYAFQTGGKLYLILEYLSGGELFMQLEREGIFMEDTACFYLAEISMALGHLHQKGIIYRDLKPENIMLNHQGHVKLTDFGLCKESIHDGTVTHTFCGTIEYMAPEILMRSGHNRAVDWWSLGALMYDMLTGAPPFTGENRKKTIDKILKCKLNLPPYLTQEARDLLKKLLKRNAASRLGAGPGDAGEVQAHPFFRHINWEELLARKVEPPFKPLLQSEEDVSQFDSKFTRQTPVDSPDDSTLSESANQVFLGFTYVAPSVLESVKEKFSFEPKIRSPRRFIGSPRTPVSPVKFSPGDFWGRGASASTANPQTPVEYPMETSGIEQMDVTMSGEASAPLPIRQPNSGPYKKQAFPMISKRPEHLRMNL
Nature of the assay: Kinase Profiler, residual kinase activity. To be noted: read-out: percentage of the remaining kinase activity. The format is biochemical.

A further assay concerns the target CDK2 (Homo sapiens, UniProt P24941). Nature of the assay: Kinase Profiler, residual kinase activity. Format: biochemical. To be noted: read-out: percentage of the remaining kinase activity.
Another assay deals with CHEK2 (Homo sapiens, UniProt O96017). The assay can be described thus: Kinase Profiler, residual kinase activity. The format is biochemical. To be noted: read-out: percentage of the remaining kinase activity.
Chain of CHEK2 (O96017 whole entry): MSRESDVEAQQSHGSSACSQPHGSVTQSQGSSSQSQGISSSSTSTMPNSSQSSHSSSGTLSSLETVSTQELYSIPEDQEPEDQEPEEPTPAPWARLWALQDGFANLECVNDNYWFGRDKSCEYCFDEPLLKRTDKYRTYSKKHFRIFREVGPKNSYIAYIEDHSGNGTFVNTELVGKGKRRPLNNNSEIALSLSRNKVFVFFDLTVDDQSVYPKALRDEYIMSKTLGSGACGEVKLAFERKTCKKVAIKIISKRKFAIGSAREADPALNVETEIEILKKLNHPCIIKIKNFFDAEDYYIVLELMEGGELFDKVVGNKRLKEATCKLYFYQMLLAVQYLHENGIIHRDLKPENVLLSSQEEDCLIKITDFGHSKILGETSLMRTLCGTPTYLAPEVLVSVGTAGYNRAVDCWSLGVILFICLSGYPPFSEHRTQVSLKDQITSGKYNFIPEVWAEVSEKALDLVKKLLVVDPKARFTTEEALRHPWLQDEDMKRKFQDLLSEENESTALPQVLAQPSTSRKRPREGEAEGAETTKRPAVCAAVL
In the next assay the target is ABL1 (Homo sapiens, UniProt P00519). The assay can be described thus: Kinase Profiler, residual kinase activity. Format: biochemical. To be noted: read-out: percentage of the remaining kinase activity.
Chain of ABL1 (P00519 whole entry): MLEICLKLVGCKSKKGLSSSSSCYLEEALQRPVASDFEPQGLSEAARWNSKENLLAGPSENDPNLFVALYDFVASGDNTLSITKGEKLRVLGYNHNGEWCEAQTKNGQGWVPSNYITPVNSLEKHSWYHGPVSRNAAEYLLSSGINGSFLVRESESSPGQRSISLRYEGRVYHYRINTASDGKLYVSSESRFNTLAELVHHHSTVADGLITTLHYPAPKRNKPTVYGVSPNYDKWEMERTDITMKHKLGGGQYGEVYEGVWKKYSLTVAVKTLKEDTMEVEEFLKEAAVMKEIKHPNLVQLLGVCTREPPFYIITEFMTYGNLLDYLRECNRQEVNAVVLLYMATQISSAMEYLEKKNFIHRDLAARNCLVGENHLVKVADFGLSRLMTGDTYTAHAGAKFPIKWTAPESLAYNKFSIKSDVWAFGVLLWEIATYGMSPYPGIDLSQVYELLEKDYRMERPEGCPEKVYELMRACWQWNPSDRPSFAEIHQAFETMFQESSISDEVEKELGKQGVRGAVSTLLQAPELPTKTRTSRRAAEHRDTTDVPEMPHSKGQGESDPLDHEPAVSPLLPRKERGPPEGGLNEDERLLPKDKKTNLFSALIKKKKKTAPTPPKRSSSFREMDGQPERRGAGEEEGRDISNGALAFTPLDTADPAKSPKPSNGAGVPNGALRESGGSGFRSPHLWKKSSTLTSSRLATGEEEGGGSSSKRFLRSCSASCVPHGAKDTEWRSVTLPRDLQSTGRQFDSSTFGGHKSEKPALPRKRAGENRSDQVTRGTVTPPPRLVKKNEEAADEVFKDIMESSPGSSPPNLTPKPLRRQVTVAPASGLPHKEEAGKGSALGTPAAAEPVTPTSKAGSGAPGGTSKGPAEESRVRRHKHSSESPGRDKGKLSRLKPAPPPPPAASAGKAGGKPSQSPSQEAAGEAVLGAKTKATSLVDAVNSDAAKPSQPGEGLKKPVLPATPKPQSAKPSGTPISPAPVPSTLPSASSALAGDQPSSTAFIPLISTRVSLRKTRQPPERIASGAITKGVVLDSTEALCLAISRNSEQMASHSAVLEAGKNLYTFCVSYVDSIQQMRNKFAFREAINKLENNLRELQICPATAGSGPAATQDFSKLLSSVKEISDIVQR
For assay [1], the system named is 40 types of protein kinases. Nature of the assay: Selectivity over the panel of 40 protein kinases. Format: biochemical. The settings on record: 500 nM; inhibited = residual kinase activity less than or equal to 50%. The text has this: Kinase Profiler services provided by […]. (http://www.reactionbiology.com) were used to analyze the data of the 9 type-S protein kinase inhibitors against the 40 types of protein kinases.

In assay [2] the test system is gastric cancer cell line MKN-45. Nature of the assay: MTT cell survival test on gastric cancer cells. Format: cell-based. The settings on record: Homo sapiens; MKN-45, MTT, 24 hours, serum-free media; read-out: IC50 value for inhibiting gastric cancer cell line MKN-45. The protocol: Gastric cancer cell line MKN-45 was incubated on a 96-well plate (about 1×10^4 cells/well). After the cells adhered, the 96-well plate was replaced with serum-free culture media, and different concentrations (from 40 to 0.039 μM) of drugs were added. After incubating at 37° C. for 24 hours, PBS was used for washing three times, and MTT culture media was added to react with cells. Violet crystals appeared after two hours. Then, DMSO (50 μl) was added to terminate the reaction. A light-absorbing micro-volume spectrophotometer (ELISA reader) was used, and an absorption value of 570 nm was obtained. A blank value was deducted from each of the obtained absorbance values, and then the difference was divided by the value of the control group to calculate a percentage, i.e., a cell survival rate. The experiment was repeated three times to obtain an average value and a standard deviation.
Background: Tetrazolium assays rely on reduction of a dye to a coloured formazan, in cell work by metabolically active cells.

T2 sequence (P49137 whole entry): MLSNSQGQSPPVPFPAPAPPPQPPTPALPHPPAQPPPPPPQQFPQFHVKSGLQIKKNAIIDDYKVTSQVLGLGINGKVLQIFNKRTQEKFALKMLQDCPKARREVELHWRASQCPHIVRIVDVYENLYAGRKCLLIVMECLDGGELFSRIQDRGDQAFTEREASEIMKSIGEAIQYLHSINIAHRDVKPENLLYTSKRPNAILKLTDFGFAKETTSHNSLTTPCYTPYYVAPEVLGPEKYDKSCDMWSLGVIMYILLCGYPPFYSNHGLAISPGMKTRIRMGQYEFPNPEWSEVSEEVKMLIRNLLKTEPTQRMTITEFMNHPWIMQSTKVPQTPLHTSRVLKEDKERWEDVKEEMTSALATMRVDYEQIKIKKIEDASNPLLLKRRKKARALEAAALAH
Chain of FGFR1 (P11362 22-822): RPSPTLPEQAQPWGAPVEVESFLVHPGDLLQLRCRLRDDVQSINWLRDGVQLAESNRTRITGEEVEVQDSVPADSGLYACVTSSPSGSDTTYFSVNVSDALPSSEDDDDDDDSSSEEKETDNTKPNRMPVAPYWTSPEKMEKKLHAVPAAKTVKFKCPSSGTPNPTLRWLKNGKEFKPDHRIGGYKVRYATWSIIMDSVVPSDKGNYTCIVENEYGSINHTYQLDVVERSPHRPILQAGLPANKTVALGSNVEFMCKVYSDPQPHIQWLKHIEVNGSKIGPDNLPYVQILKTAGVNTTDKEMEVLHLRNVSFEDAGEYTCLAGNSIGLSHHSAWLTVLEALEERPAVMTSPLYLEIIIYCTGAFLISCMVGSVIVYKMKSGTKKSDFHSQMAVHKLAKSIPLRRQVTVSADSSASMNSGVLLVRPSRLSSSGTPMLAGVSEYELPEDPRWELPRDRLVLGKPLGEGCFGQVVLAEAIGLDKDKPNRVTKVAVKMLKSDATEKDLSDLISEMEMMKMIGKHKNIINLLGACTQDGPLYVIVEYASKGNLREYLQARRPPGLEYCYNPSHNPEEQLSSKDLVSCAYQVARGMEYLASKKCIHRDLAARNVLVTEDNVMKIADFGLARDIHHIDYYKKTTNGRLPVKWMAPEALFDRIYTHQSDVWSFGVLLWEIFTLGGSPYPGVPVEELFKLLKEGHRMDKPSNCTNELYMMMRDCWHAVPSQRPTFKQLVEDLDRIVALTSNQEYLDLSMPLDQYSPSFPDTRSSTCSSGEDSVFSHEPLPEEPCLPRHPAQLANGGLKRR

Take `COC1C(N(C)C(=O)C(N)CCC(=O)OC(C)(C)C)CC2OC1(C)n1c3ccccc3c3c4c(c5c6ccccc6n2c5c31)C(=O)NC4` (centres unmarked) [Compound 6]: the remaining activity at 0.5 µM amounted to 104% on PLK1 (PLK1, inhibitor at 500 nM); 105% at MAPKAPK2 (MAPKAPK2, inhibitor at 500 nM); 29.5% on FGFR1 (FGFR1, inhibitor at 500 nM); 44% on LCK (LCK, inhibitor at 500 nM); 15% at RPS6KB1 (RPS6KB1, inhibitor at 500 nM); 55% on CDK2 (CDK2, inhibitor at 500 nM). Also, the remaining activity at 0.5 µM on CHEK2 (CHEK2, inhibitor at 500 nM) stood at 82.7%; on ABL1 (ABL1, inhibitor at 500 nM), 97.6%.

As for `COC1C(N(C)CCOc2cccc([N+](=O)[O-])c2)CC2OC1(C)n1c3ccccc3c3c4c(c5c6ccccc6n2c5c31)C(=O)NC4` (centres unmarked) [Compound 8], the remaining activity at 0.5 µM is 97.7% on PLK1; 94.6% on MAPKAPK2; 30.1% at FGFR1; 24% on LCK; 11.8% at RPS6KB1; 12.3% at CDK2. Further, the remaining activity at 0.5 µM on CHEK2 came to 46.7%; at ABL1, 92.5%.

Regarding `COC1C(N(C)C(=O)C(N)Cc2c[nH]cn2)CC2OC1(C)n1c3ccccc3c3c4c(c5c6ccccc6n2c5c31)C(=O)NC4` (centres unmarked) [Compound 1], the remaining activity at 0.5 µM on PLK1 (PLK1, inhibitor at 500 nM) is 93.8%; on MAPKAPK2 (MAPKAPK2, inhibitor at 500 nM), 73.3%; at FGFR1 (FGFR1, inhibitor at 500 nM) it was 5.1%; at LCK (LCK, inhibitor at 500 nM) it was 2.1%; on RPS6KB1 (RPS6KB1, inhibitor at 500 nM) it was 7.9%; at CDK2 (CDK2, inhibitor at 500 nM) it was 16.5%. In addition, the remaining activity at 0.5 µM on CHEK2 (CHEK2, inhibitor at 500 nM) turned out to be 30.3%; on ABL1 (ABL1, inhibitor at 500 nM) it was 77.6%.

As for `COC1C(N(C)C(=O)C(N)CCC(=O)O)CC2OC1(C)n1c3ccccc3c3c4c(c5c6ccccc6n2c5c31)C(=O)NC4` (centres unmarked) [Compound 7], the remaining activity at 0.5 µM on PLK1 (PLK1, inhibitor at 500 nM) amounted to 80.9%; on MAPKAPK2 (MAPKAPK2, inhibitor at 500 nM), 91.8%; at FGFR1 (FGFR1, inhibitor at 500 nM), 3.2%; on LCK (LCK, inhibitor at 500 nM) it was 3%; at RPS6KB1 (RPS6KB1, inhibitor at 500 nM), 9.2%; on CDK2 (CDK2, inhibitor at 500 nM), 19.3%. In addition, the remaining activity at 0.5 µM at CHEK2 (CHEK2, inhibitor at 500 nM) was found to be 47.2%; at ABL1 (ABL1, inhibitor at 500 nM), 68%.

With `COC1C(N(C)C(=O)C(N)Cc2cn(C(=O)OC(C)(C)C)c3ccccc23)CC2OC1(C)n1c3ccccc3c3c4c(c5c6ccccc6n2c5c31)C(=O)NC4` (centres unmarked) [Compound 2], the remaining activity at 0.5 µM was found to be 97.9% on PLK1 (PLK1, inhibitor at 500 nM); 106% at MAPKAPK2 (MAPKAPK2, inhibitor at 500 nM); 101% at FGFR1 (FGFR1, inhibitor at 500 nM); 97% at LCK (LCK, inhibitor at 500 nM); 72.4% at RPS6KB1 (RPS6KB1, inhibitor at 500 nM); 76.6% on CDK2 (CDK2, inhibitor at 500 nM). In addition, the remaining activity at 0.5 µM at CHEK2 (CHEK2, inhibitor at 500 nM) came to 95.8%; on ABL1 (ABL1, inhibitor at 500 nM), 109%. In addition, in assay [1], the “percentage of the 40 types of protein kinases inhibited” value was found to be 2.5%.

Take `COC1C(N(C)C(=O)C(N)Cc2ccc(OC(C)(C)C)cc2)CC2OC1(C)n1c3ccccc3c3c4c(c5c6ccccc6n2c5c31)C(=O)NC4` (centres unmarked) [Compound 4]: the remaining activity at 0.5 µM on PLK1 (PLK1, inhibitor at 500 nM) stood at 104%; on MAPKAPK2 (MAPKAPK2, inhibitor at 500 nM), 108%; on FGFR1 (FGFR1, inhibitor at 500 nM), 53.3%; at LCK (LCK, inhibitor at 500 nM) it was 68.8%; on RPS6KB1 (RPS6KB1, inhibitor at 500 nM), 15.2%; on CDK2 (CDK2, inhibitor at 500 nM), 57.5%. For the same compound, the remaining activity at 0.5 µM at CHEK2 (CHEK2, inhibitor at 500 nM) amounted to 80.4%; on ABL1 (ABL1, inhibitor at 500 nM) it was 107%. The IC50 in assay [2] is 1600 nM. For the same compound, the “number of types of protein kinases inhibited out of 40 tested” value in assay [1] is on record as 11. In assay [1], the “percentage of the 40 types of protein kinases inhibited” value turned out to be 27.5%.

In the case of `COC1C(N(C)C(=O)C(N)Cc2ccc(O)cc2)CC2OC1(C)n1c3ccccc3c3c4c(c5c6ccccc6n2c5c31)C(=O)NC4` (centres unmarked) [Compound 5], the remaining activity at 0.5 µM on PLK1 (PLK1, inhibitor at 500 nM) stood at 99.2%; at MAPKAPK2 (MAPKAPK2, inhibitor at 500 nM) it was 95.3%; at FGFR1 (FGFR1, inhibitor at 500 nM), 16.6%; at LCK (LCK, inhibitor at 500 nM), 11.5%; on RPS6KB1 (RPS6KB1, inhibitor at 500 nM), 11.8%; at CDK2 (CDK2, inhibitor at 500 nM), 56.9%. Also, the remaining activity at 0.5 µM on CHEK2 (CHEK2, inhibitor at 500 nM) came out at 73.2%; on ABL1 (ABL1, inhibitor at 500 nM), 104%.

Consider `COC1C(N(C)Cc2ccc(-c3ccccc3)cc2)CC2OC1(C)n1c3ccccc3c3c4c(c5c6ccccc6n2c5c31)C(=O)NC4` (centres unmarked) [Compound 9], for which the remaining activity at 0.5 µM at PLK1 (PLK1, inhibitor at 500 nM) is 95.9%; at MAPKAPK2 (MAPKAPK2, inhibitor at 500 nM) it was 92.5%; on FGFR1 (FGFR1, inhibitor at 500 nM), 25.7%; on LCK (LCK, inhibitor at 500 nM) it was 14%; at RPS6KB1 (RPS6KB1, inhibitor at 500 nM), 11.1%; at CDK2 (CDK2, inhibitor at 500 nM), 8.2%. The remaining activity at 0.5 µM on CHEK2 (CHEK2, inhibitor at 500 nM) came out at 37.7%; on ABL1 (ABL1, inhibitor at 500 nM), 84.9%.
